Test results published in patent publication US10953015B2, “Use of adenosine receptor signaling to regulate P-gp function” (CORNELL UNIVERSITY, priority 2016, dated 2021).

Columns and labels:
[1] = tested on: P-gp; assay: Microscopic (IFA) analysis of Rho123 uptake in primary human brain endothelial cells; type: cell-based; details: 2.5 μM Rho123, 1 μM agonist, 15 minutes to 24 hours
Experimental: Human brain endothelial cells and primary brain endothelial cells were plated onto 48-well plates until 100% confluence was reached, and media were replaced with fresh media containing Rho123 (2.5 μM) with different concentrations of Lexiscan®, NECA, or PSC833. Reaction was halted by adding 250 μl of ice-cold PBS. Plate was washed with 250 μl of ice-cold PBS 3 times and lysed with lysis buffer. Each sample was analyzed using Synergy Fluometer (Biotek), with excitation at 488 nm and emission at 523 nm. Concentration of Rho123 was analyzed using standard curve created by serial dilution of Rho123. Final concentration of Rho123 was normalized using protein concentration of lysate measured using Bradford assay (Bio-Rad). For microscopic analysis of Rho123 uptake, cells were cultured on coverslip and Rho123 was treated with or without Lexiscan® or NECA with DMSO as control. Reaction was terminated by adding ice-cold PBS and washed with ice-cold PBS 3 times. Cells were fixed with PFA and costained with anti-human P-gp. Cells were visualized with a Zeiss fluorescent microscope and captured with axiovision software. FIG. 4G is a schematic illustration of the Rho123 uptake assay.

[2] = tested on: P-gp; assay: P-gp expression in HEK293T kidney cell line (IFA MFI, western blot); type: cell-based, human; details: Lexiscan® 1, 0.5, 0.1 μM
Experimental: FIGS. 20A and 20B illustrate that Lexiscan® downregulates P-gp expression in the kidney cell line HEK293T while treatment with antagonist SCH58261 blocks Lexiscan®'s effects. […] HEK293T cells were grown to confluency on coverslips, and treated with varying concentrations of Lexiscan® (1, 0.5, and 0.1 μM) for 15 minutes. Cells were permeabilized and then stained with an antibody to P-gp (C219) and visualized under a fluorescent microscope. FIG. 20B is a graph of the MFI of P-gp in FIG. 20A. DMSO vs. Lexiscan® (“Lex”), *=P<0.05, Lexiscan® (“Lex”)+SCH58261 (“SCH”), ****P<0.0001.
HEK293T transformed kidney cells were treated with varying concentration of Lexiscan® (1, 0.5, 0.1 μM). Cells were lysed with lysis buffer ([…]), containing protease inhibitor cocktail. Samples were loaded on 7% SDS PAGE at 100V for 1 hour and transferred to nitrocellulose paper. The intensity of bands were analyzed by densitometry and plotted as a graph. Statistics: two-tailed student's t test: *=P<0.5, ****=P<0.0001.
Applicants investigated whether A2A AR agonists could modulate P-gp expression in the HEK293T human kidney cell line. HEK293T cells were grown to confluency on coverslips and treated with varying concentrations of Lexiscan, Lexiscan® plus the A2A antagonist (SCH58261), or vehicle control for 15 minutes. Cells were then permeabilized, stained with an antibody to P-gp, and visualized under a fluorescent microscope (FIG. 20A). The mean fluorescence intensity (MFI) of P-gp was quantified and graphed in FIG. 20B.
HEK293T cells were treated with various concentrations of Lexiscan, lysed, loaded onto an SDS-PAGE gel, transferred to a nitrocellulose membrane, and used for western blot analysis.

[3] = tested on: P-gp; assay: Western blot of P-gp expression in primary human brain endothelial cells; type: cell-based; details: 1 μM, up to 72 hours
Experimental: (§1) HCMEC-D3 and HBMVEC cells were plated in 12-well plates and were grown until they reached 100% confluency. The media was replaced with fresh media containing 1 μM of Lexiscan® or NECA with proper vehicle control (DMSO) for up to 72 hours. Cells were lysed by lysis buffer […] containing protease inhibitor cocktail and stored for later use (−70° C.). For cytoskeletal fraction analysis, cells were lysed in CSK buffer (100 mM NaCl, 300 mM sucrose, 3 mM MgCl2, 10 mM PIPES, pH 6.8). For brain samples, half of the brain was homogenized and lysed with […] lysis buffer and centrifuged at 17,000 g for 20 minutes and 1:10 diluted samples were used for analysis. Sample was loaded on 7% SDS PAGE at 100 V for 1 hour and transferred to the nitrocellulose paper. It was blocked with 1% BSA and incubated with anti-P-gp antibody (Genetex, 1:2000) overnight. Subsequently, it was washed with TBST and incubated with anti-rabbit secondary antibody (1:2000) for 1 hour. It was washed with TBST and developed with ECL substrate and exposed to x-ray film. Anti-GAPDH or −β-actin antibody was used as loading control. The intensity of band was analyzed with densitometric analysis and plotted as a graph for analysis of time-course effect of AR signaling on P-gp expression.

[4] = tested on: BCRP1/ABCG2; assay: BCRP1 expression in brain of WT mice (western blot); type: in vivo, mouse
[5] = tested on: P-gp; assay: Western blot of P-gp expression in primary mouse brain endothelial cells; type: cell-based; details: 1 μM, up to 72 hours
Experimental: Mice were sacrificed and meninges of brain were removed and ground using a plunger and centrifuged at 3,000 g for 5 minutes. The obtained pellet was dissolved in 18% dextran and centrifuged at 10,000 g for 10 minutes and digested with DMEM containing collagenase, DNAse, and dispase at 37° C. for 75 minutes. The sample was centrifuged for 5 minutes at 3,200 g, and the pellet was washed with warm PBS. The pellet was resuspended in DMEM/F12 with puromycin, heparin, 20% PDS, and 1-glutamine and plated onto the proper plate.
as §1, with “Sample was loaded on 7% SDS PAGE at 100 V for 1 hour and transferred to the nitrocellulose paper. It was blocked with 1% BSA and incubated with anti-P-gp antibody (Genetex, 1:2000) overnight. Subsequently, it was washed with TBST and incubated with anti-rabbit secondary antibody (1:2000) for 1 hour. It was washed with TBST and developed with ECL substrate and exposed to x-ray film. Anti-GAPDH or −β-actin antibody was used as loading control.” left out

[6] = tested on: P-gp; assay: Western blot of P-gp expression in MCF7 breast cancer cells; type: cell-based, human; details: 1 μM, 24, 48, 72 hours
Experimental: MCF7 cells (human breast cancer cell line) were cultured in 24 well plates until they reached confluency. FIGS. 17A-17C are images of western blots of cells treated with vehicle control (i.e., DMSO) (“D”) or 1 μM of the broad spectrum AR agonist NECA (“N”) (FIG. 17A), 1 μM of the A2A AR agonist Lexiscan® (“L”) (FIG. 17B), or 1 μM of the A2B AR agonist BAY60 (“B”) (FIG. 17C), respectively for 24, 48, 72 hours. Cells were lysed with lysis buffer and expression levels of P-gp, MMP9, or VEGF analyzed by western blot. GAPDH was used as loading a control. FIG. 17D is a graph of experimental results showing that Lexiscan® down-regulates P-gp expression in MCF7 breast cancer cells. MCF7 breast cancer cells were treated with Lex (0.25 μM) concomitant with Rhodamine 123 (“Rho123”). […] Students T test, P<0.001. […] FIG. 17E is a fluorescence microscopy image showing MCF7 breast cancer cells grown on coverslips and treated with vehicle (DMSO, control), or A2 AR agonists, Lexiscan® (1 μM) or A1193 (1 μM) for 15 minutes in the presence of epirubicin. Cells were stained with an antibody to P-gp and mounted with DAPI. FIG. 17F is a graph of the fluorescent intensity quantified from FIG. 17E by measuring the mean fluorescent intensity (“MFI”) of epirubicin (pink) that is present in cell nuclei. ***=P<0.0001.

SMILES	Rho123 accumulation visualized by IFA [1]	P-gp expression (western blot densitometry) [2]	P-gp expression (MFI) ([2]; 15 minutes)	P-gp expression (western blot, vs DMSO control) [3]	Time at which effect on BCRP occurred [4] [min]	BCRP expression in brain ([4]; Lexiscan® treatment, 5 to 60 minutes)	P-gp expression (western blot, normalized to GAPDH) [5]	P-gp expression (western blot) [6]	BCRP expression level in brain ([4]; 2 and 18 hours after NECA)
CNC(=O)c1cnn(-c2nc(N)c3ncn([C@@H]4O[C@H](CO)[C@@H](O)[C@H]4O)c3n2)c1 [Lexiscan®, 1-[6-amino-9-[(2R,3R,4S,5R)-3,4-dihydroxy-5-(hydroxymethyl)oxolan-2-yl]purin-2-yl]-N-methylpyrazole-4-carboxamide]	increased the accumulation of Rho123 beginning at 15 minutes to 1 hour	significantly down-regulated P-gp expression in transformed HEK293T cells	down-regulates P-gp expression in HEK293T cells	rapid down-modulation of P-gp expression, which began to decrease at 15 minutes and was maintained at a decreased level for up to 4 hours	15	potently down-regulated BCRP expression by 15 minutes, after which its expression began to recover by 60 minutes	rapid down-modulation of P-gp beginning at 30 minutes, which was maintained for up to 1 hour	decreased P-gp expression in cultured MCF7 cells at 48 and 72 hour time points	–
CCNC(=O)[C@H]1O[C@@H](n2cnc3c(N)ncnc32)[C@H](O)[C@@H]1O [NECA, (2S,3S,4R,5R)-5-(6-aminopurin-9-yl)-N-ethyl-3,4-dihydroxyoxolane-2-carboxamide]	increased Rho123 accumulation at later time points, beginning at 4 hours; this was maintained for up to 24 hours	–	–	began to decrease at 30 minutes and was maintained for up to 48 hours and recovered by 72 hours	–	–	P-gp expression decreased very rapidly and remained down-modulated for up to 4 hours	decreased P-gp expression in cultured MCF7 cells at 48 and 72 hour time points	not significantly affected
